This passage reports EC50 and AC50 results from patent publication US12590062B2, “PD-1/PD-L1 inhibitors” (Gilead Sciences, Inc., priority 2017, dated 2026).

Each structure is given as a SMILES string. Where only a bound is given, the exact number is not on record here.

The target of assay [1] is T1, interaction between the recombinant extracellular domain (ECD) of PD-1 and native cell-bound PD-L1 (Homo sapiens, UniProt Q9NZQ7).
T1 construct: expressed in transfected cells
As to the kind of experiment: CHO/PD-L1 cell capture assay. In kind it is cell-based. To be noted: CHO cells overexpressing PD-L1, pre-incubated 1 hr with compound, captured on biotinylated Fc-PD-1 coated plates, 75 min at room temperature. In outline: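 CHO cells stably overexpressing PD-L1 were pre-incubated 1 hr with compound, then captured 75 min at room temperature on biotinylated Fc-PD-1 ECD bound to streptavidin plates. After glutaraldehyde/Draq5 fixation-staining, captured cells were counted by high-content microscopy; EC50 from four-parameter dose-response fits.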

The next assay addresses T2, PD-1/PD-L1 interaction (Homo sapiens, UniProt Q9NZQ7).
T2 construct: expressed in transfected cells; host or cells: CHO cells (aAPC-PD-L1) co-cultured with Jurkat cells overexpressing PD-1 and an NFAT-luciferase reporter
Nature of the assay: PD-1/PD-L1 NFAT reporter co-culture assay. In kind it is cell-based. To be noted: Jurkat PD-1 NFAT-luciferase cells co-cultured with aAPC-PD-L1 CHO cells, 6 hrs at 37° C.; read-out: EC50 NFAT Luciferase. An outline of the steps: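 Luminescence (ONE-Glo) after 6 h, 37 °C co-culture reports NFAT-luciferase in PD-1 Jurkat cells, which PD-1/PD-L1 engagement suppresses. Partner cells: CHO expressing anti-CD3 and PD-L1. EC50 from four-parameter dose-response fit.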

The target in the next assay is T3, PD-L1 (Homo sapiens, UniProt Q9NZQ7).
T3 construct: determine if they can specifically dimerize the extracellular domains of PD-L1
Nature of the assay: PD-L1/PD-L1 dimerization biochemical protein-protein interaction assay (ALPHA). The class given is binding. The settings on record: compound-induced PD-L1 dimerization, head prints '1 nM' (0.5 nM His-tagged PD-L1 and 0.5 nM FLAG-tagged PD-L1), read-out: AC50 PDL1 Dimer Alpha 1 nM. In outline:
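ALPHA proximity assay of compound-induced dimerization of 0.5 nM His-tagged and 0.5 nM FLAG-tagged PD-L1 extracellular domains in Hepes pH 7.4 buffer, 2 h at 25 °C. Anti-His acceptor then anti-FLAG donor beads, 60 min each; AC50 from four-parameter fit.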

What is called EC50 is the concentration needed to bring the measured effect to its halfway point. The term AC50 denotes the concentration giving half of the maximal activity seen.

T3 sequence (Q9NZQ7 19-238 limits assumed): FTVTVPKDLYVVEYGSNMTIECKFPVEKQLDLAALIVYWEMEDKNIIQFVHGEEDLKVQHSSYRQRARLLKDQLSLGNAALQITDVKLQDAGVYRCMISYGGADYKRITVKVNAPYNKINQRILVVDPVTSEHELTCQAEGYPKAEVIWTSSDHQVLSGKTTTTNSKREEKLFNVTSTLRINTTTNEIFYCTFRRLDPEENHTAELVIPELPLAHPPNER
T3 sequence (Q9NZQ7 19-238 limits assumed): as above
T2 sequence (Q9NZQ7 19-290): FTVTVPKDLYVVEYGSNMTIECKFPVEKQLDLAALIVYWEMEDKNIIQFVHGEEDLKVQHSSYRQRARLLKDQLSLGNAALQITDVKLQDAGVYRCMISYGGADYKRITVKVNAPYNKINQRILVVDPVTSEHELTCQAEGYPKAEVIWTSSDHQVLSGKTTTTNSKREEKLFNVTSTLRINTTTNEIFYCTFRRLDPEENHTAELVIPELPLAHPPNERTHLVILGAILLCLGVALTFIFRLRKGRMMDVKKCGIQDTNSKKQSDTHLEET
T1 sequence (Q9NZQ7 19-290): as above

On to `Cc1c(COc2cc(OCc3cncc(C#N)c3)c(CN[C@@H](C)C(=O)O)cc2Cl)cccc1-c1cccc(-c2ccc(OCCN[C@@H](C)C(=O)O)c([N+](=O)[O-])c2)c1C` [Example 93, (4-((4″-(2-(((S)-1-carboxyethyl)amino)ethoxy)-2,2′-dimethyl-3″-nitro-[1,1′:3′,1″-terphenyl]-3-yl)methoxy)-5-chloro-2-((5-cyanopyridin-3-yl)methoxy)benzyl)-L-alanine], for which the EC50 in assay [1] stood at 44.4 nM; at PD-1/PD-L1 interaction, 127 nM. Besides, the AC50 on PD-L1 is 145 nM.

Turning to `COc1nc(OCc2cccc(-c3cccc(-c4ccc(OCCNC[C@@H](O)CC(=O)O)cc4)c3C)c2C)c(Cl)cc1CNC[C@@H](O)CC(=O)O` [Example 109, (S)-4-(((6-((4″-(2-(((S)-3-carboxy-2-hydroxypropyl)amino)ethoxy)-2,2′-dimethyl-[1,1′:3′,1″-terphenyl]-3-yl)methoxy)-5-chloro-2-methoxypyridin-3-yl)methyl)amino)-3-hydroxybutanoic acid], the figures for the EC50 (in assay [1]; on PD-1/PD-L1 interaction) were 7.5 nM and 662 nM, respectively. Further, the AC50 on PD-L1 amounted to 113 nM.

Regarding `COc1nc(OCc2cccc(-c3cccc(-c4ccc(OCCNC[C@H](O)CC(=O)O)cc4)c3C)c2C)c(Cl)cc1CNC[C@H](O)CC(=O)O` [Example 110, (R)-4-(((6-((4″-(2-(((R)-3-carboxy-2-hydroxypropyl)amino)ethoxy)-2,2′-dimethyl-[1,1′:3′,1″-terphenyl]-3-yl)methoxy)-5-chloro-2-methoxypyridin-3-yl)methyl)amino)-3-hydroxybutanoic acid], the 50% effective concentration (EC50) in assay [1] worked out at 6.5 nM; on PD-1/PD-L1 interaction, 354 nM. At PD-L1, the half-maximal activity concentration (AC50) was determined as 194 nM.

Turning to `Cc1c(COc2cc(OCc3cncc(C#N)c3)c(CNC[C@@H](O)CC(=O)O)cc2Cl)cccc1-c1cccc(-c2ccc(OCCNC[C@@H](O)CC(=O)O)cn2)c1C` [Example 112, (S)-4-((4-((3′-(5-(2-(((S)-3-carboxy-2-hydroxypropyl)amino)ethoxy)pyridin-2-yl)-2,2′-dimethyl-[1,1′-biphenyl]-3-yl)methoxy)-5-chloro-2-((5-cyanopyridin-3-yl)methoxy)benzyl)amino)-3-hydroxybutanoic acid], the concentration for a half-maximal effect (EC50) in assay [1] came out at 34.4 nM; at PD-1/PD-L1 interaction, 286 nM. Also, the AC50 on PD-L1 came to 184 nM.

With `COc1nc(OCc2cccc(-c3cccc(COc4nc(OC)c(CN(CCCC(N)=O)CC(=O)O)cc4Br)c3C)c2C)c(Br)cc1CN(CCCC(N)=O)CC(=O)O` [Example 117, 2,2′-((((((2,2′-dimethyl-[1,1′-biphenyl]-3,3′-diyl)bis(methylene))bis(oxy))bis(5-bromo-2-methoxypyridine-6,3-diyl))bis(methylene))bis((4-amino-4-oxobutyl)azanediyl))diacetic acid], the EC50 in assay [1] came to 158 nM; at PD-1/PD-L1 interaction it was 779 nM. The AC50 at PD-L1 worked out at 361 nM.

For `Cc1c(COc2nc(OCc3cc(C#N)cc(C#N)c3)c(CN[C@@](C)(CO)C(=O)O)cc2Cl)cccc1-c1cccc(COc2nc(OCc3cc(C#N)cc(C#N)c3)c(CN[C@@](C)(CO)C(=O)O)cc2Cl)c1C` [Example 123, (2S,2′S)-2,2′-((((((2,2′-dimethyl-[1,1′-biphenyl]-3,3′-diyl)bis(methylene))bis(oxy))bis(5-chloro-2-((3,5-dicyanobenzyl)oxy)pyridine-6,3-diyl))bis(methylene))bis(azanediyl))bis(3-hydroxy-2-methylpropanoic acid)], the EC50 in assay [1] amounted to 137 nM; at PD-1/PD-L1 interaction, 75 nM. Also, at PD-L1, the AC50 was 198 nM.

For `Cc1c(COc2nc(OCc3cc(C#N)cc(C#N)c3)c(CN[C@@H](CO)C(=O)O)cc2Cl)cccc1-c1cccc(COc2nc(OCc3cc(C#N)cc(C#N)c3)c(CN[C@@H](CO)C(=O)O)cc2Cl)c1C` [Example 124, (2S,2′S)-2,2′-((((((2,2′-dimethyl-[1,1′-biphenyl]-3,3′-diyl)bis(methylene))bis(oxy))bis(5-chloro-2-((3,5-dicyanobenzyl)oxy)pyridine-6,3-diyl))bis(methylene))bis(azanediyl))bis(3-hydroxypropanoic acid)], the figures for the EC50 (in assay [1]; at PD-1/PD-L1 interaction) were 147 nM and 74 nM, respectively. Besides, at PD-L1, the concentration at half-maximal activity (AC50) was not below 10000 nM.

Turning to `Cc1c(COc2nc(OC[C@H]3CCC(=O)N3)c(CNCC(=O)O)cc2Br)cccc1-c1cccc(COc2nc(OC[C@H]3CCC(=O)N3)c(CNCC(=O)O)cc2Br)c1C` [Example 129, 2,2′-((((((2,2′-dimethyl-[1,1′-biphenyl]-3,3′-diyl)bis(methylene))bis(oxy))bis(5-bromo-2-(((R)-5-oxopyrrolidin-2-yl)methoxy)pyridine-6,3-diyl))bis(methylene))bis(azanediyl))diacetic acid], the EC50 in assay [1] was determined as 221 nM; on PD-1/PD-L1 interaction it was 198 nM. Also, the AC50 at PD-L1 was determined as 167 nM.

Regarding `Cc1c(COc2nc(OC[C@@H]3CCC(=O)N3)c(CNCC(=O)O)cc2Br)cccc1-c1cccc(COc2nc(OC[C@@H]3CCC(=O)N3)c(CNCC(=O)O)cc2Br)c1C` [Example 130, 2,2′-((((((2,2′-dimethyl-[1,1′-biphenyl]-3,3′-diyl)bis(methylene))bis(oxy))bis(5-bromo-2-(((S)-5-oxopyrrolidin-2-yl)methoxy)pyridine-6,3-diyl))bis(methylene))bis(azanediyl))diacetic acid], the 50% effective concentration (EC50) in assay [1] was determined as 123 nM; at PD-1/PD-L1 interaction it was 164 nM. Further, the AC50 on PD-L1 worked out at 237 nM.

As to `Cc1c(COc2nc(OCCc3cncnc3)c(CNCC(=O)O)cc2Cl)cccc1-c1cccc(COc2nc(OCCc3cncnc3)c(CNCC(=O)O)cc2Cl)c1C` [Example 133, 2,2′-((((((2,2′-dimethyl-[1,1′-biphenyl]-3,3′-diyl)bis(methylene))bis(oxy))bis(5-chloro-2-(2-(pyrimidin-5-yl)ethoxy)pyridine-6,3-diyl))bis(methylene))bis(azanediyl))diacetic acid], the EC50 in assay [1] worked out at 129 nM; on PD-1/PD-L1 interaction it was 288 nM. The concentration at half-maximal activity (AC50) at PD-L1 was found to be 282 nM.

Turning to `Cc1c(COc2nc(OCCC(=O)N(C)C)c(CNC[C@@H](O)CC(=O)O)cc2Br)cccc1-c1cccc(COc2nc(OCCC(=O)N(C)C)c(CNC[C@@H](O)CC(=O)O)cc2Br)c1C` [Example 135, (3S,3′S)-4,4′-((((((2,2′-dimethyl-[1,1′-biphenyl]-3,3′-diyl)bis(methylene))bis(oxy))bis(5-bromo-2-(3-(dimethylamino)-3-oxopropoxy)pyridine-6,3-diyl))bis(methylene))bis(azanediyl))bis(3-hydroxybutanoic acid)], the EC50 was 221 nM in assay [1] and 812 nM at PD-1/PD-L1 interaction. Besides, the half-maximal activity concentration (AC50) on PD-L1 was determined as 250 nM.

Take `Cc1c(COc2nc(OCCCCC#N)c(CNC[C@@H](O)CC(=O)O)cc2Br)cccc1-c1cccc(COc2nc(OCCCCC#N)c(CNC[C@@H](O)CC(=O)O)cc2Br)c1C` [Example 143, (3S,3′S)-4,4′-((((((2,2′-dimethyl-[1,1′-biphenyl]-3,3′-diyl)bis(methylene))bis(oxy))bis(5-bromo-2-(4-cyanobutoxy)pyridine-6,3-diyl))bis(methylene))bis(azanediyl))bis(3-hydroxybutanoic acid)]: the 50% effective concentration (EC50) in assay [1] came out at 296 nM; on PD-1/PD-L1 interaction it was 217 nM. Moreover, the AC50 at PD-L1 was 395 nM.

In the case of `Cc1c(COc2nc(OCCC(N)=O)c(CNCC(=O)O)cc2Cl)cccc1-c1cccc(COc2nc(OCCC(N)=O)c(CNCC(=O)O)cc2Cl)c1C` [Example 146, 2,2′-((((((2,2′-dimethyl-[1,1′-biphenyl]-3,3′-diyl)bis(methylene))bis(oxy))bis(2-(3-amino-3-oxopropoxy)-5-chloropyridine-6,3-diyl))bis(methylene))bis(azanediyl))diacetic acid], the results for the EC50 (in assay [1]; at PD-1/PD-L1 interaction) were 184 nM and 2300 nM, respectively. Further, the AC50 at PD-L1 came out at 334 nM.

`COc1nc(OCc2cccc(-c3cccc(COc4nc(OC)c(CNCCC(=O)O)cc4Cl)c3C)c2C)c(Cl)cc1CNCCC(=O)O` [Example 172, 3,3′-((((((2,2′-dimethyl-[1,1′-biphenyl]-3,3′-diyl)bis(methylene))bis(oxy))bis(5-chloro-2-methoxypyridine-6,3-diyl))bis(methylene))bis(azanediyl))dipropionic acid]: the concentration giving a half-maximal response (EC50) in assay [1] came out at 50.6 nM; on PD-1/PD-L1 interaction it was 139 nM. The AC50 on PD-L1 is not below 10000 nM.

On to `COc1nc(OCc2cccc(-c3cccc(COc4nc(OC)c(CNCCCC(=O)O)cc4Cl)c3C)c2C)c(Cl)cc1CNCCCC(=O)O` [Example 183, 4,4′-((((((2,2′-dimethyl-[1,1′-biphenyl]-3,3′-diyl)bis(methylene))bis(oxy))bis(5-chloro-2-methoxypyridine-6,3-diyl))bis(methylene))bis(azanediyl))dibutyric acid], for which the EC50 in assay [1] came out at 69.1 nM; on PD-1/PD-L1 interaction it was 141 nM. Also, the concentration at half-maximal activity (AC50) on PD-L1 is 260 nM.
